In US6509325B1, “Method for inhibiting melanogenesis and uses thereof” (priority 2000, dated 2003):

Experiments:
[1] = tested on: C. neoformans strain 24067; assay: Survival of BALB/c mice infected with C. neoformans; format: in vivo; details: for survival advantage: oral
Protocol: (§1) Cryptococcus neoformans cells were collected as described above. BALB/c mice (National Cancer Institute (NCI), Bethesda, Md.), 6-8 weeks old, were injected intravenously (i.v.) by the tail veins with 1×10^6 organisms. […] In experiment A, uninfected control mice were injected with glyphosate at the same time intervals. […] Forty-four days after infection, the A/J Cr mice were killed, and the lungs were isolated and homogenized in 5 ml of PBS. 100 μl of 1/100 and 1/1000 dilutions of the homogenates in PBS were then plated on Sab agar. Colony-forming units (CFUs) were determined after incubation of the plates at 30° C. for 48 h (1 colony=1 CFU). […] Control mice were injected with PBS instead of glyphosate.
Data analysis was performed using SPSS version 8. Student's T-test and Kaplan-Meier survival analysis were utilized.

[2] = tested on: autopolymerization of L-dopa to melanin; assay: Autopolymerization of L-dopa to melanin (spectrophotometry)
Protocol: In solution, L-dopa slowly autopolymerizes to form melanin [20]. […] The samples were left on the benchtop at room temperature. An Ultraspec 2000 spectrophotometer (Pharmacia Biotech, Cambridge, England) was used to assess absorption at 270λ after 3 days and 20 days. […] A freshly-prepared solution of the same concentrations was tested for comparison.

[3] = tested on: Cryptococcus neoformans serotype D strain 24067; assay: Glyphosate inhibition of C. neoformans growth (turbidity, 96-well plates); format: cell-based; details: after 72 h of incubation, 30° C., Sab, visual turbidity
Protocol: Cryptococcus neoformans serotype D strain 24067 was obtained from the American Type Culture Collection (Rockville, Md.), and grown overnight at 30° C. with shaking in Sabouraud dextrose media (Sab) obtained from Difco Laboratories (Detroit, Mich.). Cells were collected and washed three times with phosphate-buffered saline (PBS: 0.137 M NaCl and 0.003 M sodium phosphate; pH 7.4). A suspension of 250 organisms per 1 ml of Sab was made. Glyphosate was obtained from the Sigma Chemical Co. (St. Louis, Mo.). […] Each concentration was tested in triplicate. The plates were incubated at 30° C., and growth was assayed visually for turbidity after 72 h.

[4] = tested on: C. neoformans; assay: Lung CFUs in A/J Cr mice infected with C. neoformans; format: in vivo; details: 1 mg glyphosate i.p. at 24, 48, 72 h, 44 days after infection, n=13, controls 9.63±0.21, p=0.004
Protocol: as §1

[5] = tested on: melanization in C. neoformans; assay: Effect of sub-inhibitory glyphosate on melanization of C. neoformans cultures with L-dopa; format: cell-based, Cryptococcus neoformans; details: 1 mM L-dopa; for Melanization: control without glyphosate day 7
Protocol: Positive melanin controls were cultures containing L-dopa without glyphosate; negative controls were cultures lacking both L-dopa and glyphosate. All cultures were grown in duplicate. The cultures were examined visually for melanization. The growth rate of the cells in each culture was determined by counting, with a hemocytometer, the number of cells per ml at various times after the initiation of the culture.

Q: Which results are given for `O=C(O)CNCP(=O)(O)O` [glyphosate, N-phosphonomethylglycine]?
A: Mean survival ([1]; 0.75 mg/day glyphosate i.p. protocol, control 20.4±1.31 days, p=0.049): 26.8 ± 3.55 days; Mean survival time and standard deviation by Kaplan-Meier analysis ([1]; 1.5 mg/day glyphosate i.p. for three days, control 15.9±1.57 days, p=0.001): 25.7 ± 2.36 days; survival advantage ([1]; ad lib water containing 2 mg/ml glyphosate): no survival advantage; survival advantage ([1]; ad lib water containing 10 mg/ml glyphosate): no survival advantage; absorption value ([2]; 0.12 μg/ml glyphosate, 1 mM L-dopa, day 3, 270λ, control without compound 0.425): 0.359; concentration of glyphosate at which an absorption signal could be detected ([2]; day 3, 1 mM L-dopa, room temperature, 270λ): 39 µg/mL; concentrations of glyphosate that continued to inhibit melanin formation ([2]; day 20, 1 mM L-dopa, room temperature): ≥ 31.3 µg/mL; concentrations of glyphosate at which growth inhibition was observed [3]: > 250 µg/mL; concentrations of glyphosate at which no growth inhibition was observed [3]: < 250 µg/mL; Log10 CFUs from lung homogenates [4]: 8.62±1.12; Melanization ([5]; 62.5 μg/ml glyphosate): 10 days; Melanization ([5]; 125 μg/ml glyphosate): 13 days; Melanization ([5]; 250 μg/ml glyphosate): 15 days; melanization state of culture ([5]; grown 10 days in minimal media, 62.5 μg/ml glyphosate): heavily melanized
